Results published in patent US20250115597A1, “TYK2 INHIBITORS AND COMPOSITIONS AND METHODS THEREOF” (LYNK PHARMACEUTICALS CO. LTD., priority 2021, published 2025).
Like-named read-outs stand apart in the source and are kept apart here.

Legend:
TYK2-JH2 domain = molecular target: T1, TYK2-JH2 domain (Homo sapiens, UniProt P29597); test: Binding activity test for JH2 domain of TYK2 (Tb-antibody/tracer FRET); settings: for JAK1/TYK2 selectivity: ratio JAK1-JH2 IC50 / TYK2-JH2 IC50
T1 construct: IC50 on JH2 domain activity (nM)
T1 sequence (P29597 589-875 limits assumed): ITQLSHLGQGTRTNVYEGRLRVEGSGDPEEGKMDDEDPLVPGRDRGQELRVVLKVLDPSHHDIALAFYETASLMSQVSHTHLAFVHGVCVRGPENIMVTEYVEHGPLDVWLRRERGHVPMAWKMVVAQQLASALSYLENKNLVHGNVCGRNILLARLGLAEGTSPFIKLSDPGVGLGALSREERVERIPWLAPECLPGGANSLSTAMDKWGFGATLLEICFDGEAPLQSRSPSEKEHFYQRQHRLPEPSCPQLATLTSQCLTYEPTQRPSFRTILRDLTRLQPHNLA
Procedure: (§1) Binding Activity Test for […] Domain of JAK1 and TYK2 The compounds are prepared in DMSO for 200× top dose, then serial dilute it with 27-fold for 3 more points. Add 8 μL/well in echo source plate, echo will add 75 nL/well with 3-fold serial dilution for 11 points in assay plate. 75 nL DMSO for high control and low control. […] For low control, add 5 μL/well assay buffer. And then spin down at 1000 rpm and centrifuge for 30 seconds. After enzyme system prepared, add 5 μL of Tb-antibody solution into each wells of assay plate. Spin down at 1000 rpm and centrifuge for 30 sec. After Tb-antibody added, also add 5 μL of tracer into the assay plate. Spin down at 1000 rpm and centrifuge for 30 sec. Incubate for 60 mins at 25° C. firstly and then continue to incubate the plate at 4° C. overnight. Read by envision in FRET mode. The Luminescence value was recorded by a multi-label reader Envision (PerkinElmer).

JAK1-JH2 domain = molecular target: T2, JAK1-JH2 domain (Homo sapiens, UniProt P23458); test: Binding activity test for JH2 domain of JAK1 (Tb-antibody/tracer FRET)
T2 construct: IC50 on JH2 domain activity (nM)
T2 sequence (P23458 583-855 limits assumed): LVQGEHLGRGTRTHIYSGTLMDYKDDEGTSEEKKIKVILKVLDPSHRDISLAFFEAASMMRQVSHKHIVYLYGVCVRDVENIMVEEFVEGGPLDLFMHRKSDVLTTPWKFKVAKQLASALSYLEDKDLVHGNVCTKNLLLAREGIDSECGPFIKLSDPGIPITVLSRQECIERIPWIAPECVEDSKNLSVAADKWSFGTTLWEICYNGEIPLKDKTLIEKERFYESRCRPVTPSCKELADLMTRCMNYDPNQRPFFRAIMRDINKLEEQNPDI
Procedure: as §1

[1] = molecular target: T3, Ba/F3-FL-TYK2-P760L cells (Homo sapiens, UniProt P29597, P760L, cells depend on it); test: Anti-proliferative assay, Ba/F3-FL-TYK2-P760L cells (Cell-Titer Glo); type: cell-based; settings: 72 h, read-out: BaF3-FL-T2P760L IC50
T3 construct: BaF3-FL-T2P760L (nM)
T3 sequence (P29597 whole entry P760L): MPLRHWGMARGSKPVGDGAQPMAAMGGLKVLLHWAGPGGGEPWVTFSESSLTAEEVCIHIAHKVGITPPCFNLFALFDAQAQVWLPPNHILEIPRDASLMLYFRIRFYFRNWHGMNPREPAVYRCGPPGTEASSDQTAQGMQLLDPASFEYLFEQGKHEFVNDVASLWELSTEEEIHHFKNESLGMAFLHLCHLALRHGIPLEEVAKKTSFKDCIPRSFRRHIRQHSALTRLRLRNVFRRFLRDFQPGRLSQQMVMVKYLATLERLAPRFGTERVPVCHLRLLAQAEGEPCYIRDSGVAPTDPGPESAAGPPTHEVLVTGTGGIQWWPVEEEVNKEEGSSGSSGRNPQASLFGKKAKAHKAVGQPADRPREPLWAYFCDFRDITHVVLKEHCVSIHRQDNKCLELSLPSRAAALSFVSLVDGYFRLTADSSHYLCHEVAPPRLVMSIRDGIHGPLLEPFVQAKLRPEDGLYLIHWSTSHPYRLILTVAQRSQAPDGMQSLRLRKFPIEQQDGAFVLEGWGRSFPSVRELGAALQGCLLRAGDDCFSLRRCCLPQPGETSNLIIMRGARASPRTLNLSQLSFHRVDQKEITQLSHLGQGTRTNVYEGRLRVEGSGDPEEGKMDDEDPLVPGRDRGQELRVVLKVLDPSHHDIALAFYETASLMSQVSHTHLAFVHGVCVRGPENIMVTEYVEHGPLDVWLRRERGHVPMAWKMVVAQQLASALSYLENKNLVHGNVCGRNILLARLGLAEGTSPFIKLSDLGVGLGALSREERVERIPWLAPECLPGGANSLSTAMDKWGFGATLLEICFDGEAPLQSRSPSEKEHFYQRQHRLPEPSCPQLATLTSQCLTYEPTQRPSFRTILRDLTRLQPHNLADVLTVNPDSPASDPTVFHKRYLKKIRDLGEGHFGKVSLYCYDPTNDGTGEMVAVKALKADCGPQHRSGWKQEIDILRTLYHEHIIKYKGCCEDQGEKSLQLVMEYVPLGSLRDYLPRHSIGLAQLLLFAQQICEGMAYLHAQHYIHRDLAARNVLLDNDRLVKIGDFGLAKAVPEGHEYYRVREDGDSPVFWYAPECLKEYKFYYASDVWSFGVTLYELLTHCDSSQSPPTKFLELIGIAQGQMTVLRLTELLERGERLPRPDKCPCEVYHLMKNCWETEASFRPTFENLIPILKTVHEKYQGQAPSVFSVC
How it was run: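 Ba/F3 cells made IL-3-independent by TEL-fused or full-length mutant JAK-family kinases, seeded at 2000/well and dosed after 24 h with 9 three-fold dilutions topping at 20 μM. Viability after 72 h at 37 °C, 5% CO2 by Cell-Titer Glo ATP luminescence.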

[2] = Microsomal metabolic stability assay; type: in vitro ADME; settings: pH 7.4, 0.5 mg/mL protein, 1 μM compound
How it was run: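 Test article at 1 μM with 0.5 mg/mL microsomal protein and 2 mM NADPH, in 100 mM potassium phosphate pH 7.4 with 1.0 mM EDTA at 37 °C. Sampled at 0–45 min and quantified by LC/MS/MS. T1/2 from the slope of ln % remaining vs time.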

[3] = dog liver microsomes, read-out: Dog LM Clint
[4] = dog liver microsomes, read-out: Dog LM T½
[5] = human liver microsomes, read-out: Human LM Clint
[6] = human liver microsomes, read-out: Human LM T½
[7] = rat liver microsomes, read-out: Rat LM Clint
[8] = rat liver microsomes, read-out: Rat LM T½

IC50 (TYK2-JH2 domain)	JAK1/TYK2 selectivity (TYK2-JH2 domain)	IC50 (JAK1-JH2 domain)	GI50 [1]	microsomal CLint at 1 μM [2, 3]	half-life at 1 μM [2, 4]	microsomal CLint at 1 μM [2, 5]	half-life at 1 μM [2, 6]	microsomal CLint at 1 μM [2, 7]	half-life at 1 μM [2, 8]	Compound
0.534 nM	28.7	15.3 nM	161 nM	–	–	–	–	–	–	[2H]C([2H])([2H])NC(=O)c1cnc(NC(=O)[C@@H]2C[C@H]2F)cc1Nc1ccc2cnn(CC)c2c1OC (relative stereo) [Example 241, 4-((1-Ethyl-7-methoxy-1H-indazol-6-yl)amino)-6-(trans-2-fluorocyclopropanecarboxamido)-N-(methyl-d3)nicotinamide]
5.78 nM	42.2	244 nM	–	–	–	–	–	–	–	[2H]C([2H])([2H])NC(=O)c1cnc(NC(=O)C2CC2)cc1Nc1cn(C)c2ncn([C@@H](C)C(F)(F)F)c(=O)c12 (single isomer, unassigned) [Example 234B, (S*)-6-(cyclopropanecarboxamido)-N-(methyl-d3)-4-((7-methyl-4-oxo-3-(1,1,1-trifluoropropan-2-yl)-4,7-dihydro-3H-pyrrolo[2,3-d]pyrimidin-5-yl)amino)nicotinamide]
0.715 nM	25.15	18 nM	495 nM	–	–	–	–	–	–	[2H]C([2H])([2H])NC(=O)c1cnc(NC(=O)C2CC2)cc1Nc1ccc2cnn(C(C)C#N)c2c1OC (single isomer, unassigned) [Example 249A, (R*)-4-((1-(1-cyanoethyl)-7-methoxy-1H-indazol-6-yl)amino)-6-(cyclopropanecarboxamido)-N-(methyl-d3)nicotinamide]
0.868 nM	50.81	44.1 nM	–	4.66 µL/min/mg	4.95 h	23 µL/min/mg	1 h	39.4 µL/min/mg	0.586 h	[2H]C([2H])([2H])NC(=O)c1cnc(NC(=O)C2CC2)cc1Nc1cn(CC)c2ncn([C@H](C)C(F)(F)F)c(=O)c12 (single isomer, unassigned) [Example 254A, (R*)-6-(cyclopropanecarboxamido)-4-((7-ethyl-4-oxo-3-(1,1,1-trifluoropropan-2-yl)-4,7-dihydro-3H-pyrrolo[2,3-d]pyrimidin-5-yl)amino)-N-(methyl-d3)nicotinamide]
11.6 nM	21.60	252 nM	–	–	–	–	–	–	–	[2H]C([2H])([2H])NC(=O)c1cnc(NC(=O)C2CC2)cc1Nc1cn(CC)c2ncn([C@@H](C)C(F)(F)F)c(=O)c12 (single isomer, unassigned) [Example 254B, (S*)-6-(cyclopropanecarboxamido)-4-((7-ethyl-4-oxo-3-(1,1,1-trifluoropropan-2-yl)-4,7-dihydro-3H-pyrrolo[2,3-d]pyrimidin-5-yl)amino)-N-(methyl-d3)nicotinamide]
0.4 nM	–	–	42.1 nM	11.4 µL/min/mg	2.02 h	6.45 µL/min/mg	3.58 h	47.1 µL/min/mg	0.49 h	[2H]C([2H])([2H])NC(=O)c1nnc2cc1Nc1cc(cc(-c3ncn(C)n3)c1OC)COCc1cccc(n1)N2 [Example 68, 10-Methoxy-N-(methyl-d3)-11-(1-methyl-1H-1,2,4-triazol-3-yl)-15-oxa-2,4,5,8,21-pentaazatetracyclo[15.3.1.1^{3,7}.1^{9,13}]tricosa-1(21),3,5,7(23),9(22),10,12,17,19-nonaene-6-carboxamide]
0.887 nM	–	–	374 nM	< 18.6 µL/min/mg	> 3.1 h	28.6 µL/min/mg	1.53 h	49.5 µL/min/mg	0.794 h	[2H]C([2H])([2H])NC(=O)c1cnc(NC(=O)C2CC2)cc1Nc1cn(C)c2ccn(CC)c(=O)c12 [Example 100, 6-(Cyclopropanecarbonylamino)-4-[(5-ethyl-1-methyl-4-oxo-pyrrolo[3,2-c]pyridin-3-yl)amino]-N-(methyl-d3)pyridine-3-carboxamide]
0.92 nM	–	–	102 nM	15.9 µL/min/mg	1.45 h	48.8 µL/min/mg	0.473 h	73 µL/min/mg	0.316 h	[2H]C([2H])([2H])NC(=O)c1cnc(NC(=O)C2CC2)cc1Nc1cn(C)c2ccn(CC(F)(F)F)c(=O)c12 [Example 110, 6-(Cyclopropanecarboxamido)-N-(methyl-d3)-4-((1-methyl-4-oxo-5-(2,2,2-trifluoroethyl)-4,5-dihydro-1H-pyrrolo[3,2-c]pyridin-3-yl)amino)nicotinamide]
1.19 nM	–	–	145 nM	16.8 µL/min/mg	1.38 h	31.6 µL/min/mg	0.732 h	38.9 µL/min/mg	0.595 h	[2H]C([2H])([2H])NC(=O)c1cnc(Nc2ccn(C)n2)cc1Nc1ccc2cnn(C([2H])([2H])[2H])c2c1OC [Example 154, 4-((7-Methoxy-1-(methyl-d3)-1H-indazol-6-yl)amino)-N-(methyl-d3)-6-((1-methyl-1H-pyrazol-3-yl)amino)nicotinamide]
4.03 nM	–	–	78.3 nM	14.7 µL/min/mg	1.57 h	69.3 µL/min/mg	0.333 h	46.4 µL/min/mg	0.498 h	[2H]C([2H])([2H])NC(=O)c1cnc(NC(=O)C2CC2)cc1Nc1cn(C)c2ccn(C(C)C(F)(F)F)c(=O)c12 (centres unmarked) [Example 190, 6-(Cyclopropanecarboxamido)-N-(methyl-d3)-4-((1-methyl-4-oxo-5-(1,1,1-trifluoropropan-2-yl)-4,5-dihydro-1H-pyrrolo[3,2-c]pyridin-3-yl)amino)nicotinamide]
1.41 nM	–	–	368 nM	11.2 µL/min/mg	2.06 h	10.8 µL/min/mg	2.14 h	53.8 µL/min/mg	0.43 h	[2H]C([2H])([2H])NC(=O)c1cnc(NC(=O)C2CC2)cc1Nc1cn(CCOC)c2ccn(CC)c(=O)c12 [Example 193, 6-(Cyclopropanecarboxamido)-4-((5-ethyl-1-(2-methoxyethyl)-4-oxo-4,5-dihydro-1H-pyrrolo[3,2-c]pyridin-3-yl)amino)-N-(methyl-d3)nicotinamide]
138 nM	–	–	4760 nM	–	–	–	–	–	–	CCn1ncc2ccc(Nc3cc(NC(=O)C4CC4)ncc3Cl)c(OC)c21 [Example 272, N-(5-chloro-4-((1-ethyl-7-methoxy-1H-indazol-6-yl)amino)pyridin-2-yl)cyclopropanecarboxamide]
34.4 nM	–	–	> 5000 nM	–	–	–	–	–	–	[2H]C([2H])([2H])NC(=O)c1cnc(NC(=O)C2CC2)cc1Nc1ccc2cnn(CCN(C)C)c2c1OC [Example 274, 6-(Cyclopropanecarboxamido)-4-((1-(2-(dimethylamino)ethyl)-7-methoxy-1H-indazol-6-yl)amino)-N-(methyl-d3)nicotinamide]
0.33 nM	–	–	70.1 nM	–	–	–	–	–	–	[2H]C([2H])([2H])NC(=O)c1cnc(NC(=O)C2CC2)cc1Nc1ncn2ncc(C)c2c1OC [Example 279, 6-(Cyclopropanecarboxamido)-4-((4-methoxy-3-methylpyrazolo[1,5-c]pyrimidin-5-yl)amino)-N-(methyl-d3)nicotinamide]
0.18 nM	–	–	40.2 nM	–	–	–	–	–	–	[2H]C([2H])([2H])NC(=O)c1cnc(NC(=O)C2CC2)cc1Nc1ncn2ncc(CC)c2c1OC [Example 280, 6-(Cyclopropanecarboxamido)-4-((3-ethyl-4-methoxypyrazolo[1,5-c]pyrimidin-5-yl)amino)-N-(methyl-d3)nicotinamide]
0.25 nM	–	–	48.2 nM	–	–	–	–	–	–	[2H]C([2H])([2H])NC(=O)c1cnc(NC(=O)C2CC2)cc1Nc1ncn2ncc(Cl)c2c1OC [Example 281, 4-((3-Chloro-4-methoxypyrazolo[1,5-c]pyrimidin-5-yl)amino)-6-(cyclopropanecarboxamido)-N-(methyl-d3)nicotinamide]
0.27 nM	–	–	75.2 nM	–	–	–	–	–	–	[2H]C([2H])([2H])NC(=O)c1cnc(NC(=O)C2CC2)cc1Nc1ncn2ncc(C#N)c2c1OC [Example 282, 4-((3-Cyano-4-methoxypyrazolo[1,5-c]pyrimidin-5-yl)amino)-6-(cyclopropanecarboxamido)-N-(methyl-d3)nicotinamide]
